Experimental data taken from PMC8591201, “Anti-Tumor Activity of AZD4547 Against NTRK1 Fusion Positive Cancer Cells Through Inhibition of NTRKs” (Frontiers in Oncology, 2021).

Experiments:
Test in all cases: cells
Set-up in all cases: Anti-proliferation, 10-point dose response, CellTiter-Glo luminescence (MTT stated for KM12(Luc)), GI50 fitted in Prism
KG-1 = details: Homo sapiens, KG-1, 72 h, read-out: GI50 (µM) a
RS4-11 = details: Homo sapiens, RS4-11, 72 h, read-out: GI50 (µM) a
HCC70 = details: Homo sapiens, HCC70, 72 h, read-out: GI50 (µM) a
NCI-H1975 = details: Homo sapiens, NCI-H1975, 72 h, read-out: GI50 (µM) a
NCI-H417 = details: Homo sapiens, NCI-H417, 72 h, read-out: GI50 (µM) a
SW620 = details: Homo sapiens, SW-620, 72 h, read-out: GI50 (µM) a
A375 = details: Homo sapiens, A-375, 72 h, read-out: GI50 (µM) a
DU-145 = details: Homo sapiens, DU-145, 72 h, read-out: GI50 (µM) a
CAPAN-1 = details: Homo sapiens, CAPAN-1, 72 h, read-out: GI50 (µM) a
NCI-H2228 = details: Homo sapiens, NCI-H2228, 72 h, read-out: GI50 (µM) a
J82 = details: Homo sapiens, J82, 72 h, read-out: GI50 (µM) a
HeLa = details: Homo sapiens, HeLa, 72 h, read-out: GI50 (µM) a

SMILES: COc1cc(CCc2cc(NC(=O)c3ccc(N4C[C@@H](C)N[C@@H](C)C4)cc3)n[nH]2)cc(OC)c1 [AZD4547]
- GI50 (KG-1): 6.27 µM
- GI50 (RS4-11): 3.24 µM
- GI50 (HCC70): 16.6 µM
- GI50 (NCI-H1975): 28.9 µM
- GI50 (NCI-H417): 5.99 µM
- GI50 (SW620): 11 µM
- GI50 (A375): 11.4 µM
- GI50 (DU-145): 10.7 µM
- GI50 (CAPAN-1): 17.5 µM
- GI50 (NCI-H2228): 17.2 µM
- GI50 (J82): 9.54 µM
- GI50 (HeLa): 4.38 µM
